Experimental findings from US20240209028A1, “CNP COMPOUNDS” (priority 2022, published 2024) are described below.

Starred links: 1 amine or outer side, 2 acyl side, 3 side chain; linkers in the order of their positions; H or OH if unused. Positions of bridges follow the written chain, without caps; N, C: chain ends. Residues, ends and D or L forms follow the SMILES beside them. *: point of attachment. C18 diacid = O=C(O)CCCCCCCCCCCCCCCCC(=O)*; γGlu = O=C(O)[C@H](CCC(=O)[*:2])N[*:1]; AEEA = NCCOCCOCC(=O)O

One assay deals with T1, human natriuretic peptide receptor 2 (hNPR2) (Homo sapiens, UniProt P20594).
T1 construct: expressed in transfected cells; host or cells: HEK293 (ATCC CRL-1573), clone 35, co-transfected with pGloSensor-42F
T1 sequence (P20594 23-1047): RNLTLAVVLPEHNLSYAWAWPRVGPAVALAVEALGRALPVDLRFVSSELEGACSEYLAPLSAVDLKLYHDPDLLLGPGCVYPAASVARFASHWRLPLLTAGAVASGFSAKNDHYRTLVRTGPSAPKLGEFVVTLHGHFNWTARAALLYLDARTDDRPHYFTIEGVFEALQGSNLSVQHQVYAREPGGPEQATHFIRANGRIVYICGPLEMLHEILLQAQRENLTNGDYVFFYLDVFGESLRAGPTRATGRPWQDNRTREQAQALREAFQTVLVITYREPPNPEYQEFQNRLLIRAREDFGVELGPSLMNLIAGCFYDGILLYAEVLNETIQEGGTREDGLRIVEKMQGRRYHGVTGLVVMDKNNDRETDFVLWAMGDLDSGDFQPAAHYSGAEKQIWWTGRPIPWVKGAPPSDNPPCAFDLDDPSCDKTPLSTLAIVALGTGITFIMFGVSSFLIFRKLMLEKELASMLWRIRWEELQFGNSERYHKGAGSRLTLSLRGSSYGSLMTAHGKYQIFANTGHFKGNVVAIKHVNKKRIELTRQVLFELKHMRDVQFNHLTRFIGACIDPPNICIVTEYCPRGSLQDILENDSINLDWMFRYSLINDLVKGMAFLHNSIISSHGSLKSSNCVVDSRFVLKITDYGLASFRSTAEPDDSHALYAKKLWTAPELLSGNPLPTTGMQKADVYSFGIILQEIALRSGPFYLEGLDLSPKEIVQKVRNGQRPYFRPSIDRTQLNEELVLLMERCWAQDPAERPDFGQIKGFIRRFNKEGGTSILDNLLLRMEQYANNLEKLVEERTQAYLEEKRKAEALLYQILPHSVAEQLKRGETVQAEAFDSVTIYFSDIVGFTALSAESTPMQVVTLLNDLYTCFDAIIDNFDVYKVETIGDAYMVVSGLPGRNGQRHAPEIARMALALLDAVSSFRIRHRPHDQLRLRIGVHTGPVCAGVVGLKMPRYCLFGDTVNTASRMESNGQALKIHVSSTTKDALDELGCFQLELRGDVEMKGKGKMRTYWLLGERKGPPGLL
In words: In vitro hNPR2 activity assay (cGMP GloSensor reporter, HEK293). Format: cell-based. The following applies: 0% HSA; HEK293-hNPR2/GloSensor cells. In short, it runs like this: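 Potency is the EC50 from a four-parameter logistic fit, also expressed relative to the in-plate CNP22 control (×100), with at least two replicates. Compounds (ten concentrations, […], HSA-free diluent with 1% OVA, 0.01% Tween20) were incubated 30 min at 37 °C on HEK293 cells co-expressing hNPR2 and a GloSensor cGMP luciferase. Luminescence detected with Bright-Glo.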
Usually EC50 stands for the concentration at which the effect is half-maximal. Read a low EC50 as greater potency. Take `CC[C@H](C)[C@@H]1NC(=O)[C@H](CCCNC(=N)N)NC(=O)[C@H](CC(=O)O)NC(=O)[C@H](CC(C)C)NC(=O)[C@H](CCCCN)NC(=O)[C@H](CC(C)C)NC(=O)CNC(=O)[C@H](Cc2ccccc2)NC(=O)[C@@H](NC(=O)CNC(=O)[C@H](CCCCN)NC(=O)[C@H](CO)NC(=O)[C@H](CC(C)C)NC(=O)CNC(=O)COCCOCCNC(=O)COCCOCCNC(=O)COCCOCCNC(=O)COCCOCCNC(=O)COCCOCCNC(=O)COCCOCCNC(=O)COCCOCCNC(=O)COCCOCCNC(=O)CC[C@H](NC(=O)CCCCCCCCCCCCCCCCC(=O)O)C(=O)O)CSSC[C@@H](C(=O)O)NC(=O)CNC(=O)[C@H](CC(C)C)NC(=O)CNC(=O)[C@H](CO)NC(=O)[C@H](CCSC)NC(=O)[C@H](CO)NC(=O)CNC1=O` [compound 0231]: the concentration for a half-maximal effect (EC50) amounted to 14.5 nM.

The assay is the same for the next values; noted with them: potency relative to CNP22 (0065).
Take `CC[C@H](C)[C@@H]1NC(=O)[C@H](CCCNC(=N)N)NC(=O)[C@H](CC(=O)O)NC(=O)[C@H](CC(C)C)NC(=O)[C@H](CCCCN)NC(=O)[C@H](CC(C)C)NC(=O)CNC(=O)[C@H](Cc2ccccc2)NC(=O)[C@@H](NC(=O)CNC(=O)[C@H](CCCCN)NC(=O)[C@H](CO)NC(=O)[C@H](CC(C)C)NC(=O)CNC(=O)COCCOCCNC(=O)COCCOCCNC(=O)COCCOCCNC(=O)COCCOCCNC(=O)COCCOCCNC(=O)COCCOCCNC(=O)COCCOCCNC(=O)COCCOCCNC(=O)CC[C@H](NC(=O)CCCCCCCCCCCCCCCCC(=O)O)C(=O)O)CSSC[C@@H](C(=O)O)NC(=O)CNC(=O)[C@H](CC(C)C)NC(=O)CNC(=O)[C@H](CO)NC(=O)[C@H](CCSC)NC(=O)[C@H](CO)NC(=O)CNC1=O` [compound 0231]: the “hNPR2 0% HSA. [EC50% rel CNP]” value is reported as 0.8%.

Turning to `CC[C@H](C)[C@@H]1NC(=O)[C@H](CCCNC(=N)N)NC(=O)[C@H](CC(=O)O)NC(=O)[C@H](CC(C)C)NC(=O)[C@@H]2CCCN2C(=O)[C@H](CC(C)C)NC(=O)CNC(=O)[C@H](Cc2ccccc2)NC(=O)[C@@H](NC(=O)CNC(=O)[C@H](CCC(N)=O)NC(=O)[C@H](CO)NC(=O)[C@H](CC(C)C)NC(=O)CNC(=O)[C@H](CCCCN)NC(=O)[C@H](CCCCN)NC(=O)[C@H](CCC(N)=O)NC(=O)[C@H](C)NC(=O)CNC(=O)[C@H](CCCCN)NC(=O)[C@H](Cc2ccc(O)cc2)NC(=O)[C@H](CCCCN)NC(=O)[C@H](CCCNC(=N)N)NC(=O)[C@H](C)NC(=O)COCCOCCNC(=O)COCCOCCNC(=O)COCCOCCNC(=O)COCCOCCNC(=O)CC[C@H](NC(=O)CC[C@H](NC(=O)CC[C@H](NC(=O)CC[C@H](NC(=O)CCCCCCCCCCCCCCCCC(=O)O)C(=O)O)C(=O)O)C(=O)O)C(=O)O)CSSC[C@@H](C(=O)O)NC(=O)CNC(=O)[C@H](CC(C)C)NC(=O)CNC(=O)[C@H](CO)NC(=O)[C@H](CC(C)C)NC(=O)[C@H](CO)NC(=O)CNC1=O` [compound 1454] ({C18 diacid-γGlu-γGlu-γGlu-γGlu-AEEA-AEEA-AEEA-AEEA}-ARKYKGAQKKGLSQGCFGLPLDRIGSLSGLGC-OH; disulfide 16-32; C-terminus assumed), the “hNPR2 0% HSA. [EC50% rel CNP]” value was determined as 63.6%.

Take `CC[C@H](C)[C@@H]1NC(=O)[C@H](CCCNC(=N)N)NC(=O)[C@H](CC(=O)O)NC(=O)[C@H](CC(C)C)NC(=O)[C@@H]2CCCN2C(=O)[C@H](CC(C)C)NC(=O)CNC(=O)[C@H](Cc2ccccc2)NC(=O)[C@@H](NC(=O)CNC(=O)[C@H](CO)NC(=O)[C@H](CO)NC(=O)[C@H](CC(C)C)NC(=O)CNC(=O)[C@H](CCCCN)NC(=O)[C@H](CCCCN)NC(=O)[C@H](CCC(N)=O)NC(=O)[C@H](C)NC(=O)CNC(=O)[C@H](CCCCN)NC(=O)[C@H](Cc2ccc(O)cc2)NC(=O)CNC(=O)CNC(=O)CNC(=O)CC[C@H](NC(=O)CC[C@H](NC(=O)CC[C@H](NC(=O)CC[C@H](NC(=O)CCCCCCCCCCCCCCCCC(=O)O)C(=O)O)C(=O)O)C(=O)O)C(=O)O)CSSC[C@@H](C(=O)O)NC(=O)CNC(=O)[C@H](CC(C)C)NC(=O)CNC(=O)[C@H](CO)NC(=O)[C@H](CC(C)C)NC(=O)[C@H](CO)NC(=O)CNC1=O` [compound 1387] ({C18 diacid-γGlu-γGlu-γGlu-γGlu}-GGGYKGAQKKGLSSGCFGLPLDRIGSLSGLGC-OH; disulfide 16-32; C-terminus assumed): the “hNPR2 0% HSA. [EC50% rel CNP]” value stood at 20.6%.

As for `CC[C@H](C)[C@@H]1NC(=O)[C@H](CCCNC(=N)N)NC(=O)[C@H](CC(=O)O)NC(=O)[C@H](CC(C)C)NC(=O)[C@@H]2CCCN2C(=O)[C@H](CC(C)C)NC(=O)CNC(=O)[C@H](Cc2ccccc2)NC(=O)[C@@H](NC(=O)CNC(=O)[C@H](CCC(N)=O)NC(=O)[C@H](CO)NC(=O)[C@H](CO)NC(=O)CNC(=O)[C@H](Cc2c[nH]cn2)NC(=O)[C@H](CCCCN)NC(=O)[C@H](CCC(N)=O)NC(=O)[C@H](C)NC(=O)CNC(=O)[C@H](Cc2c[nH]cn2)NC(=O)[C@H](Cc2ccc(O)cc2)NC(=O)[C@H](CCCCN)NC(=O)[C@H](Cc2c[nH]cn2)NC(=O)[C@H](C)NC(=O)[C@H](CCC(N)=O)NC(=O)[C@@H]2CCCN2C(=O)[C@H](Cc2c[nH]cn2)NC(=O)[C@H](CCC(=O)O)NC(=O)[C@H](CCC(N)=O)NC(=O)COCCOCCNC(=O)COCCOCCNC(=O)CC[C@H](NC(=O)CC[C@H](NC(=O)CCCCCCCCCCCCCCCCC(=O)O)C(=O)O)C(=O)O)CSSC[C@@H](C(=O)O)NC(=O)CNC(=O)[C@H](CC(C)C)NC(=O)CNC(=O)[C@H](CO)NC(=O)[C@H](CC(C)C)NC(=O)[C@H](CO)NC(=O)CNC1=O` [compound 1383] ({C18 diacid-γGlu-γGlu-AEEA-AEEA}-QEHPQAHKYHGAQKHGSSQGCFGLPLDRIGSLSGLGC-OH; disulfide 21-37), the “hNPR2 0% HSA. [EC50% rel CNP]” value is reported as 43.1%.

As for `CC[C@H](C)[C@@H]1NC(=O)[C@H](CCCNC(=N)N)NC(=O)[C@H](CC(=O)O)NC(=O)[C@H](CC(C)C)NC(=O)[C@@H]2CCCN2C(=O)[C@H](CC(C)C)NC(=O)CNC(=O)[C@H](Cc2ccccc2)NC(=O)[C@@H](NC(=O)CNC(=O)[C@H](CCC(N)=O)NC(=O)[C@H](CO)NC(=O)[C@@H](NC(=O)CNC(=O)[C@H](CCCCN)NC(=O)[C@H](CCCCN)NC(=O)[C@H](CCC(N)=O)NC(=O)[C@H](C)NC(=O)CNC(=O)[C@H](Cc2c[nH]cn2)NC(=O)[C@H](Cc2ccc(O)cc2)NC(=O)COCCOCCNC(=O)COCCOCCNC(=O)COCCOCCNC(=O)COCCOCCNC(=O)CC[C@H](NC(=O)CC[C@H](NC(=O)CCCCCCCCCCCCCCCCC(=O)O)C(=O)O)C(=O)O)C(C)C)CSSC[C@@H](C(=O)O)NC(=O)CNC(=O)[C@H](CC(C)C)NC(=O)CNC(=O)[C@H](CO)NC(=O)[C@H](CC(C)C)NC(=O)[C@H](CO)NC(=O)CNC1=O` [compound 1437] ({C18 diacid-γGlu-γGlu-AEEA-AEEA-AEEA-AEEA}-YHGAQKKGVSQGCFGLPLDRIGSLSGLGC-OH; disulfide 13-29), the “hNPR2 0% HSA. [EC50% rel CNP]” value is recorded as 19.9%.

Regarding `CC[C@H](C)[C@@H]1NC(=O)[C@H](CCCNC(=N)N)NC(=O)[C@H](CC(=O)O)NC(=O)[C@H](CC(C)C)NC(=O)[C@@H]2CCCN2C(=O)[C@H](CC(C)C)NC(=O)CNC(=O)[C@H](Cc2ccccc2)NC(=O)[C@@H](NC(=O)CNC(=O)[C@H](CCC(N)=O)NC(=O)[C@H](CO)NC(=O)[C@H](CC(C)C)NC(=O)CNC(=O)[C@H](CCCCN)NC(=O)[C@H](CCCCN)NC(=O)[C@H](CCC(N)=O)NC(=O)[C@H](C)NC(=O)CNC(=O)[C@H](CCCCN)NC(=O)[C@H](Cc2ccc(O)cc2)NC(=O)[C@H](CCCCN)NC(=O)[C@H](CCCNC(=N)N)NC(=O)[C@H](C)NC(=O)[C@H](CCC(N)=O)NC(=O)[C@@H]2CCCN2C(=O)[C@H](Cc2c[nH]cn2)NC(=O)[C@H](CCC(=O)O)NC(=O)[C@H](CCC(N)=O)NC(=O)COCCOCCNC(=O)COCCOCCNC(=O)CC[C@H](NC(=O)CC[C@H](NC(=O)CC[C@H](NC(=O)CC[C@H](NC(=O)CCCCCCCCCCCCCCCCC(=O)O)C(=O)O)C(=O)O)C(=O)O)C(=O)O)CSSC[C@@H](C(=O)O)NC(=O)CNC(=O)[C@H](CC(C)C)NC(=O)CNC(=O)[C@H](CO)NC(=O)[C@H](CC(C)C)NC(=O)[C@H](CO)NC(=O)CNC1=O` [compound 1472] ({C18 diacid-γGlu-γGlu-γGlu-γGlu-AEEA-AEEA}-QEHPQARKYKGAQKKGLSQGCFGLPLDRIGSLSGLGC-OH; disulfide 21-37; C-terminus assumed), the “hNPR2 0% HSA. [EC50% rel CNP]” value was 52.0%.
